Measurements: patent US7563789B2, “1-Adamantyl chalcones for the treatment of proliferative disorders” (priority 2002, dated 2009)
Where two headings read alike, the source gives them in different places.

How the values were obtained:
[1] = tested on: MDA-MB435 (ER-negative) human breast cancer cell line; assay: Dose response / cell viability (LC50) in MDA-MB435 breast cancer cells
Description: 1. […] Biological activity was determined by relative LC50 values of these agents.
(§1) 2. The compounds in series I, II, III, and IV were examined against two different types of breast cancer cell lines which included estrogen receptor positive (MCF-7) and estrogen receptor negative (MDA-MB435) cell lines.
(§2) 3. Toxicity of the compounds for normal breast epithelial cells were examined by comparing LC50 values in normal breast epithelial cell line (MCF-10) against LC50 values in cancer cell lines. LC50 is the concentration that is lethal to 50 percent of the cells. LC50 values were estimated from a dose response graph.
(§3) Two human breast cancers cell lines (MCF-7 and MDA-MB435) and a normal breast epithelial cell line (MCF-10) were obtained from ATCC (American Type Culture Collection) to test against the series of compounds and the data were examined for the compounds' relative antiproliferation profiles. All of these cell lines were derived from epithelial tissue. These cell lines were selected because they allowed our laboratory to investigate the effects of the compounds in: 1) breast neoplasms whose growth is stimulated by the presence of estrogen, MCF-7 (ER-positive); 2) Breast neoplasms whose growth is not stimulated by estrogen MDA-MB435 (ER-negative); and 3) A non-cancer cell line (MCF-10) to compare relative toxicities of the compounds.

[2] = tested on: MCF-7 (ER-positive) human breast cancer cell line; assay: cells
Description: 1. A dose response curve for compounds, series I, II, III, IV, over a concentration range of 1 mM to 1 nM was prepared in order to detect the doses where possible biological activity might exist. Biological activity was determined by relative LC50 values of these agents.
as §1, §2, §3

[3] = tested on: normal breast epithelial cell line MCF-10; assay: Toxicity for normal breast epithelial cells; assay type: cell-based; details: MCF-10 cells; highest concentration tested (1 mM); average values
Description: 3. […] LC50 values were estimated from a dose response graph.
The relative toxicity of the synthesized compounds (47a-e) against normal breast cells was studied by exposing normal breast epithelial cell line MCF-10 to our synthesized compounds in concentration ranges from 1 nM to 1 mM. These cells were likewise exposed to equivalent concentrations of Tamoxifen, Genestein, and Doxyrubicin. […] At concentrations lower than 10^−7 M, these compounds appeared to enhance the viability of cells.

[4] = tested on: EGF stimulated growth of MDA-MB435 cells; assay: Reversal of EGF stimulated growth of MDA-MB435 cells; assay type: cell-based; details: EGF (1 ng/ml) serum and non-serum stimulated growth of MDA-MB435 cells; 10^−9 to 10^−3 M
Description: (§4) The possible mechanism of action of these compounds was explored by examining the ability of these agents to reverse growth factor stimulated proliferation. The ability of these compounds to attenuate EGF and TGF stimulated growth was tested.
(§5) Both MCF-7 and MDA-MB435 cells contain EGF-R and TGF-R. In an effort to examine the role of EGF-R and TGF-R in the proliferation of MCF-7 and MDA-MB435, these cells were stimulated to growth stimulatory at 50 percent (GS50) values.
(§6) In all cases 10 ml of growth factor was administered at a concentration of 1 ng/ml.

[5] = tested on: EGF stimulated growth of MCF-7 cells; assay type: cell-based, human
Description: as §4, §5, §6

[6] = tested on: TGF stimulated growth of MDA-MB 435 cells
Description: 4. The possible mechanism of action of these compounds was explored by examining the ability of these agents to reverse growth factor stimulated proliferation. The ability of these compounds to attenuate EGF and TGF stimulated growth was tested.
as §5, §6

[7] = tested on: TGF-α stimulated growth of MCF-7 cells; assay: Reversal of TGF-α stimulated growth of MCF-7 cells; assay type: cell-based
Description: as §4, §5, §6

[8] = tested on: Normal human mammary epithelial (HME) cells stimulated by EGF; details: read-out: concentration at which cell growth is inhibited by 50% (IC50); cited from earlier work
[9] = Homo sapiens, MCF7, read-out: LC50

CC/C(=C(\c1ccccc1)c1ccc(OCCN(C)C)cc1)c1ccccc1 [Tamoxifen]
effect on cell viability (in words) ([1]; MDA-MB435 cells): ineffective at lower concentrations
CC50 [2, 9]: 500 µM

CC(C)c1ccc(/C=C/C(=O)C23CC4CC(CC(C4)C2)C3)cc1 [Compound 43f]
effect on cell viability (in words) ([1]; MDA-MB435 cells): altered cell viability only at much higher concentrations than required for MCF-7 cells
decrease of cell viability [2]: 20%

COc1cccc2c1C(=O)c1c(O)c3c(c(O)c1C2=O)C[C@@](O)(C(=O)CO)C[C@@H]3O[C@H]1C[C@H](N)[C@H](O)[C@H](C)O1 [Doxyrubicin]
CC50 [2, 9]: 500 µM

O=C(/C=C/c1cccnc1)C12CC3CC(CC(C3)C1)C2 [Compound 47b]
% cell viability [3]: 124%
CC50 [1]: 5 µM

Cc1cccc(/C=C/C(=O)C23CC4CC(CC(C4)C2)C3)n1 [Compound 47d]
% cell viability [3]: 94%

O=C(/C=C/c1ccccn1)C12CC3CC(CC(C3)C1)C2 [Compound 47a]
reversal of stimulated growth (in words) [4]: Neither EGF (1 ng/ml) serum nor non-serum stimulated growth of MDA-MB435 cells was reversed
% cell viability [3]: 103%
IC50 ([5]; EGF-non serum stimulated growth of MCF-7 cells, read-out: IC50, reversal of stimulated growth back to control values): 50 µM
concentration reversing stimulated growth back to control values ([5]; EGF-serum stimulated growth of MCF-7 cells): 10 µM
concentration reversing stimulated growth back to control values ([6]; TGF (1 ng/ml) non-serum stimulated growth of MDA-MB 435 cells): 10 µM
concentration reversing stimulated growth back to control values ([6]; TGF (1 ng/ml) serum stimulated growth of MDA-MB 435 cells): 50 µM
CC50 ([7]; MCF-7, TGF 1 ng/ml, non-serum stimulated, reversal value, read-out: LC50 Data for Administered Drug, Non-Serum Stimulated): 50 µM
reversal of stimulated growth (in words) ([7]; TGF-α serum and non-serum stimulated growth of MCF-7 cells, 10^−9 to 10^−3 M): neither TGF-α serum stimulated nor non-serum stimulated growth of MCF-7 cells significantly reversed

O=C(/C=C/c1ccnc2ccccc12)C12CC3CC(CC(C3)C1)C2 [Compound 47e]
% cell viability [3]: 98%
CC50 [2]: 50 µM
LC50 increase over tamoxifen ([2]; MCF-7 cells, versus tamoxifen): 10 fold

O=C(/C=C/c1ccncc1)C12CC3CC(CC(C3)C1)C2 [Compound 47c]
% cell viability [3]: 102%

O=c1c(-c2ccc(O)cc2)coc2cc(O)cc(O)c12 [Genestein, Genistein]
CC50 ([1]; Homo sapiens, MDA-MB-435, read-out: LC50): 5000 µM
LC50 (in words) ([1]; MDA-MB435 cells, in the concentration range measured (1 mM to 1 nM)): no LC50 was obtained
IC50 [8]: 1 µM
